Experiments:
[1] = system: αMβ2-integrin, also known as CR3 or Mac-1; assay: FACS binding of fluoresceinated conjugates to CHO cells transfected with αMβ2-integrin; conditions: FACS analysis, CHO-Mac1 cells
Text: (§1) Sham conjugation procedures were also followed substituting cysteine for glycan.

[2] = system: sham-transfected CHO cells (CHO-Neo); assay: FACS binding of fluoresceinated conjugates to sham-transfected CHO cells; conditions: FACS analysis
Text: as §1

Chain of αMβ2-integrin, also known as CR3 or Mac-1 (P05107 23-769, other chains not shown): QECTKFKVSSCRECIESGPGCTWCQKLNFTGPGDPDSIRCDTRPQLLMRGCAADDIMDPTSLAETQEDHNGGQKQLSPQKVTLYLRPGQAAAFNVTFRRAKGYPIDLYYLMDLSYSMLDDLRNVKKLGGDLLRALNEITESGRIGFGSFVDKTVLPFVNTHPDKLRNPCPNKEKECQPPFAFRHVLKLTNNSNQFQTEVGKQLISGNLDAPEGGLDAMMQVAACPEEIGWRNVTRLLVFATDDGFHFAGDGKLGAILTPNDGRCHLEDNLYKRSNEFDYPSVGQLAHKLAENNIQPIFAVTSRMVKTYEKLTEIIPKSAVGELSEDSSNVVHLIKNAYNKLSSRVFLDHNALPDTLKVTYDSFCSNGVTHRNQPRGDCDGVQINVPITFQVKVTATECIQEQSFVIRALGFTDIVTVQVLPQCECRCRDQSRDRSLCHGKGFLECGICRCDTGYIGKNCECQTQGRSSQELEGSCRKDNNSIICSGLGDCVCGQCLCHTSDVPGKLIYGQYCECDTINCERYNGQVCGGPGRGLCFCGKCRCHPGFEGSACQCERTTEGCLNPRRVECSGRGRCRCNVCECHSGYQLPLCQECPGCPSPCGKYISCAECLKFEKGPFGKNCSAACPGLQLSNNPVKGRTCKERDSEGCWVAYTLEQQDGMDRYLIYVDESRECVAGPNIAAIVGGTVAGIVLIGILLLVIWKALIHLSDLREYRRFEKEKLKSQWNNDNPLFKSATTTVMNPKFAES

For “fluoresceinated BSA-cysteine: sham conjugate of BSA carrier protein substituting cysteine for glycan, fluoresceinated”, the “binding to CHO cells transfected with αMβ2-integrin” value [1] was 0.69% and the “binding to sham-transfected CHO cells (CHO-Neo)” value [2] was 0.4%.

Source: patent publication US20080044428A1, “Glycosylphosphatidylinositol Glycan Signalling Via Integrins Functioning as Glycan Specific Receptors” (THE WALTER AND ELIZA HALL INSTITUTE OF MEDICAL RES, priority 2004, published 2008)
